Substitutions are numbered along the chain they refer to. Numbers in names are those of the source.
Tests used:
[1] = target: T1, NaDC1 (Homo sapiens, UniProt Q13183); assay: whole-cell patch clamp, transfected HEK293T; type: cell-based; set-up: gene SLC13A2; full length, homodimer; GFP and FLAG tagged in HEK293T for currents; conditions: citrate-induced current; reversible on washout
T1 sequence (Q13183 1-592): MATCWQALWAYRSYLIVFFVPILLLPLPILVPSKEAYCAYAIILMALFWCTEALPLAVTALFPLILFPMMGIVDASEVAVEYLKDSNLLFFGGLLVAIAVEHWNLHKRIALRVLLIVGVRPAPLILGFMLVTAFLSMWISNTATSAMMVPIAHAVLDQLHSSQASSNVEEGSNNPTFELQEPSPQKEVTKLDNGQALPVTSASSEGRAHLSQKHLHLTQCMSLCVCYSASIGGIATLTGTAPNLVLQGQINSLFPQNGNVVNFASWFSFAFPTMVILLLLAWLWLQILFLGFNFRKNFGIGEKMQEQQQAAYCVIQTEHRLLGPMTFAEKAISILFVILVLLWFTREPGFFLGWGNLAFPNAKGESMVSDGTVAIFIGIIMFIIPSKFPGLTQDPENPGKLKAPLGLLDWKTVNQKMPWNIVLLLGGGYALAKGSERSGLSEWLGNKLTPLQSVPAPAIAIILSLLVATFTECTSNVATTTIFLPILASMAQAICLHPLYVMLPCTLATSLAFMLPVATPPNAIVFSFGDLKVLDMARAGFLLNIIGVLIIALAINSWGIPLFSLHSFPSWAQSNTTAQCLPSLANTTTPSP

[2] = target: T2, NaDC1 (Homo sapiens, UniProt Q13183, I550V); assay: cryo-EM structure ([…] Å); type: binding; conditions: 400 μM ACA; allosteric site of TM2, L10, TM11, TM6a
T2 construct: gene SLC13A2; full length, homodimer; N-terminal FLAG purified from HEK293F (structures, natural variant I550V); GFP and FLAG tagged in HEK293T for currents
T2 sequence (Q13183 1-592 I550V): T1 sequence (Q13183 1-592) with I550V

[3] = target: T3, NaS1 (Homo sapiens, UniProt Q9BZW2); assay: cryo-EM structure (IN/IN […] Å, IN/OUT […] Å); type: binding; conditions: substrate site; Na+ bound at Na1 in IN/IN
T3 construct: gene SLC13A1; full length, N-terminal FLAG tag, HEK293F membranes, purified in GDN, homodimer
T3 sequence (Q9BZW2 1-595): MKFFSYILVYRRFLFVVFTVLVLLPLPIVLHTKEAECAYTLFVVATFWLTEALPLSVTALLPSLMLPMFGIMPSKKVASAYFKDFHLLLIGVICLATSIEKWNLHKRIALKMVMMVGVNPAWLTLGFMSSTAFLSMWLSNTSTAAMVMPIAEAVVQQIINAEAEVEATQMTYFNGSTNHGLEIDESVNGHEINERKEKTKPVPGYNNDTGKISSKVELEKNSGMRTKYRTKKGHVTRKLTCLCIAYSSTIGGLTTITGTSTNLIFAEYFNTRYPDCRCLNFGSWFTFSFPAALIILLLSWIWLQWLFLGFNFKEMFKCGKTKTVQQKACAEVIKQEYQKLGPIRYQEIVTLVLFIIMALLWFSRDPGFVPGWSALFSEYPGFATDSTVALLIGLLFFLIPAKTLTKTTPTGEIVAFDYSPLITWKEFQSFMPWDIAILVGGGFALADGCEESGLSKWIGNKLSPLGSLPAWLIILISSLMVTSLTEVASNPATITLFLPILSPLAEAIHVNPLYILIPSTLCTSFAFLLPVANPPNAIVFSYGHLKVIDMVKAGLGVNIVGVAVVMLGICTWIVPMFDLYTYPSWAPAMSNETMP

[4] = target: the molecule itself; assay: cryo-EM structure; single-particle cryo-EM of purified NaS1 in 25 mM tris pH 8.0, 150 mM NaCl, 0.01% GDN; apo and sulfate-bound; IN/IN and IN/OUT dimers
[5] = target: the molecule itself; assay: cryo-EM structure; single-particle cryo-EM of purified NaDC1 in 20 mM Hepes pH 7.4, 150 mM NaCl, 0.02% GDN; apo, with 10 mM sodium citrate, or with 400 uM ACA; OUT/OUT dimer

## CCCCCc1ccc(/C=C/C(=O)Nc2ccccc2C(=O)O)cc1 [ACA]
[1]
  whole-cell patch clamp, transfected HEK293T: A significant decrease in citrate-induced current was detected when ACA was added
[2]
  cryo-EM structure (3.3 Å): the cryo-EM structure of NaDC1 bound with ACA was solved

## O=S(=O)(O)O [sulfate]
[3]
  cryo-EM structure (IN/IN 3.1 Å, IN/OUT 3.2 Å): there is obvious sulfate density around the classical substrate binding pocket of NaS1_sulfate_IN/IN

B1: human NaS1 (SLC13A1), sodium ion-sulfate cotransporter 1 (natural protein, UniProt Q9BZW2 1-595, looked up)
chain: T3 sequence (Q9BZW2 1-595)
notes: full-length human SLC13A1 (NaS1), NP_071889.2, UniProtKB Q9BZW2; No removal of the FLAG tag is described; the protein was captured on anti-FLAG resin and eluted with FLAG peptide; not shown: FLAG, N-terminal, kept
[4]
  binding result: binds

B2: human NaDC1 (SLC13A2), sodium ion-dicarboxylate cotransporter 1, natural variant I550V (natural protein, UniProt Q13183-1 1-592, looked up)
chain: T1 sequence (Q13183 1-592) with I550V
notes: full-length human SLC13A2 (NaDC1), NP_003975.1, UniProtKB Q13183, with the natural variant I550V that was used to determine the structures; Homodimer in the cryo-EM structures (OUT/OUT; No removal of the FLAG tag is described; the protein was captured on anti-FLAG resin and eluted with FLAG peptide; also called NaDC1_apo; NaDC1_citrate; source: extracted in DDM/CHS, exchanged to GDN); not shown: …
[5]
  binding result: binds
